Among the data in article PMC10091362 (Lab on a Chip, 2023) are Km values, retold here.

The target of one series is beta-galactosidase (Escherichia coli, UniProt P00722). The experiment in a line: droplet microfluidic steady-state Michaelis–Menten kinetics. The series is classed as biochemical.
Substrate in the series “purified protein”: CC(=O)N1c2ccc(O)cc2Oc2cc(O)ccc21
The series can be described thus: purified protein. The conditions noted are these: H2O2 (co-substrate).

beta-galactosidase, sequence (P00722 2-1024): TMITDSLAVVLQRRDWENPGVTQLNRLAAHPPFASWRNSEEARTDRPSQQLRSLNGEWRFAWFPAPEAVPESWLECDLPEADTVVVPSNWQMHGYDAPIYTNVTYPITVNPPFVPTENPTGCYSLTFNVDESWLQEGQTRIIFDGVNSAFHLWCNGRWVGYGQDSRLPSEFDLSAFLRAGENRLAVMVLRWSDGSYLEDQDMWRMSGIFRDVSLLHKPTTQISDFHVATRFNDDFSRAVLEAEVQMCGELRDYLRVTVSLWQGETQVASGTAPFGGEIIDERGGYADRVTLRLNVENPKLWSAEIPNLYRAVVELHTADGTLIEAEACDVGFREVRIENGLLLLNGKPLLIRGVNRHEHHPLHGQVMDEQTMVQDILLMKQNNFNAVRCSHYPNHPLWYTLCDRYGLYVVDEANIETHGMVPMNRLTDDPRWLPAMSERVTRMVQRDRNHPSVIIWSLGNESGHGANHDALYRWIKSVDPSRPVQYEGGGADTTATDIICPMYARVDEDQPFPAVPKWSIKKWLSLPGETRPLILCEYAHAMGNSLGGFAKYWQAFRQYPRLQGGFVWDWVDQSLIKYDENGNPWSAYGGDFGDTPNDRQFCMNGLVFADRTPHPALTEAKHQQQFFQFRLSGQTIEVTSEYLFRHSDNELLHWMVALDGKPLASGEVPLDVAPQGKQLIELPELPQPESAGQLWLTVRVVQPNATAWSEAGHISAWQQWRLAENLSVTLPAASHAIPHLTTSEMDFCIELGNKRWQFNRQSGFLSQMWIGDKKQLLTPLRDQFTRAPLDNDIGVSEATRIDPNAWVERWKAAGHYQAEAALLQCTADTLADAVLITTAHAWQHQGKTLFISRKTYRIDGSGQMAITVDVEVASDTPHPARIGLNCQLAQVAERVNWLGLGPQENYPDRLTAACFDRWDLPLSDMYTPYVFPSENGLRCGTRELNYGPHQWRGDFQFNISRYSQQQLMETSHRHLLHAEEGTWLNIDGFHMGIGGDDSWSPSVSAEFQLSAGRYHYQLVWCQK

As for `O=c1ccc2nc3ccc(O[C@@H]4O[C@H](CO)[C@H](O)[C@H](O)[C@H]4O)cc3oc-2c1` [resorufin beta-D-galactopyranoside], on beta-galactosidase, the Km is 408 ± 140 µM.

Consider `O=C1OC2(c3ccc(O[C@@H]4O[C@H](CO)[C@H](O)[C@H](O)[C@H]4O)cc3Oc3cc(O[C@@H]4O[C@H](CO)[C@H](O)[C@H](O)[C@H]4O)ccc32)c2ccccc21` [Fluorescein di-beta-D-galactopyranoside], for which, at beta-galactosidase, the Km is 19.8 ± 1.4 µM.

B1: horseradish peroxidase (Armoracia rusticana) (protein)
chain: QLTPTFYDNSCPNVSNIVRDTIVNELRSDPRIAASILRLHFHDCFVNGCDASILLDNTTSFRTEKDAFGNANSARGFPVIDRMKAAVESACPRTVSCADLLTIAAQQSVTLAGGPSWRVPLGRRDSLQAFLDLANANLPAPFFTLPQLKDSFRNVGLNRSSDLVALSGGHTFGKNQCRFIMDRLYNFSNTGLPDPTLNTTYLQTLRGLCPLNGNLSALVDFDLRTPTIFDNKYYVNLEEQKGLIQSDQELFSSPNATDTIPLVRSFANSTQTFFNAFVEAMDRMGNITPLTGTQGQIRLNCRVVNSNS
With B1, in the series “purified protein”, the Km was 20 ± 1.8 µM.
